Measured values published in US9730915B2 (OBSCHESTVO S OGRANICHENNOI OTVETSTVENNOSTIYU …, priority 2013, dated 2017).
Values joined by “and” are separate entries in the source; they are usually repeats but may differ in a detail not shown here. Equal entries are not always repeated.

Experiments:
[1] = test system: herpes simplex virus HSV-2/VN; assay: Murine model of herpes meningoencephalitis, HSV-2/VN; format: in vivo; conditions: mice
Protocol: (§1) Mice were intracerebrally infected with herpes simplex virus HSV-1/CL and HSV-2/VN in a dose of 30 μl comprising 10 LD50.
(§2) A therapeutic effect of glutaryl histamine was studied by once-daily oral administration of 200 μl of the drug to the infected mice at a dose of 30 mg/kg 24, 48, 72, 96, and 120 hours after infection with the virus. Mice of the control group were administered placebo under the same conditions ([…] of a physiological solution). The animals were monitored for 14 days after infection, and fatal cases among mice from herpes meningocephalitis were registered in the treated and control groups. Activity of the drug was evaluated by comparing mortality rates of animals treated with glutaryl histamine relative to animals of the control group. A reduction in the mortality rate of the treated animals relative to the control was expressed in percentage.

[2] = Toxic reactions and side effects on administration
[3] = test system: herpes simplex virus HSV-1/CL; assay: Murine model of herpes meningoencephalitis, HSV-1/CL; format: in vivo; conditions: mice
Protocol: as §1, §2

[4] = test system: IFNAR2 mRNA; assay: mRNA synthesis of interferon receptor subunit IFNAR2, Real Time PCR in A-549 cells; format: cell-based; conditions: 100 ng/mL, 16 hours after the treatment (FIG. 1)
Protocol: (§3) A continuous cell line A-549 was treated with glutaryl histamine at a concentration of 100 ng/mL. […] The RNAs were isolated by using RNEASY® Kit (Qiagen). The RNA preparation was treated with DNAase (RNase-free DNaseI (Ambion). Reverse transcription was performed by using THERMOSCRIPT™ RT-PCR System (Invitrogen). Quantitative PCR was carried out with the primers: […]

[5] = test system: IFNAR1; assay: Density of interferon receptor subunit IFNAR1 on the surface of primary human macrophages (antibody staining, optical density); format: cell-based; conditions: primary human macrophages, 0.1, 1.0, 10 or 100 ng/mL, 24 hours (FIG. 2)
Protocol: (§4) A 10-day primary culture of human macrophages in 96-well plates was incubated for 24 hours in the presence of glutaryl histamine at concentrations: 0.1, 1.0, 10 or 100 ng/mL or without it. […] The preparation was visualized by staining with horseradish peroxidase-labeled secondary antibodies and adding a substrate. Optical density was measured using an ELISA spectrophotometer.

[6] = test system: IFNAR2; assay: Density of interferon receptor subunit IFNAR2 on the surface of primary human macrophages (antibody staining, optical density); format: cell-based; conditions: primary human macrophages, 0.1, 1.0, 10 or 100 ng/mL, 24 hours (FIG. 2)
Protocol: as §4

[7] = test system: IFNAR1 mRNA; assay: mRNA synthesis of interferon receptor subunit IFNAR1, Real Time PCR in A-549 cells; format: cell-based; conditions: 100 ng/mL, 16 hours after the treatment (FIG. 1)
Protocol: as §3

[8] = test system: protein MxA; assay: Cell sensitivity to interferon: MxA protein immunoblot in A-549 cells; format: cell-based; conditions: for synthesis of MxA protein: glutaryl histamine 100 ng/mL plus 1 IU interferon-alpha
Source text: Cell lysates were undergone to the procedure of immunoblot analysis (western blotting) by using monoclonal antibodies against to protein MxA (sc-50509, Santa Cruz Biotechnology) to stain membranes by a chemiluminescence method using a substrate (chemiluminescent reagent SUPER SIGNAL® West Femto Chemiluminescent Substrate (Thermo Fisher Scientific)).

## O=C(O)CCCC(=O)NCCc1c[nH]cn1 [glutaryl histamine]
[1]; HSV-2, 14 days monitoring, control 6.1 ± 4.3
  Life expectancy, days M ± σ: 10.2 days and 10.2 ± 4.8 days
[1]; HSV-2, reduction in mortality relative to control
  Protection index, %: 47.1%
[1]; HSV-2 intracerebral 10 LD50, oral once daily 24-120 h after infection, 14 days monitoring, control 85.0
  Mortality rate, %: 45%
[2]; accompanying the therapeutic effect
  toxic reactions and other side effects: not accompanied by toxic reactions and other side effects
[2]; long-term administration in therapeutic doses or doses greater by an order of magnitude
  adverse side effects: has not demonstrated adverse side effects
[3]; HSV-1 strain CL intracerebral 10 LD50, oral once daily 24-120 h after infection, 14 days monitoring, control 95.0
  Mortality rate, %: 65%
[3]; HSV-1 strain CL, 14 days monitoring, control 4.8 ± 3.1
  Life expectancy, days M ± σ: 8.1 days and 8.1 ± 4.9 days
[3]; HSV-1 strain CL, reduction in mortality relative to control
  Protection index, %: 31.6%
[4]
  increase in the amount of the mRNA of subunit IFNAR2: three-fold increase
[5]
  density of IFNAR1 on the cell surface (signal in antibody staining): noticeably increased level of the signal
[6]
  density of IFNAR2 on the cell surface (signal in antibody staining): noticeably increased level of the signal
[7]
  increase in the mRNA synthesis of subunit IFNAR1: at least in a two-folded increase
[8]; 8 hours (line 5, FIG. 3)
  synthesis of MxA protein: increased synthesis
[8]; 24 hours (line 6, FIG. 3)
  synthesis of MxA protein: increased synthesis
[8]; glutaryl histamine 100 ng/mL, not treated with interferon (lines 1, 2, 3, FIG. 3)
  accumulation of MxA protein: did not cause the accumulation
